For 33 compounds, IC50 results are on record in US8084479B2, “Thiazole compounds and methods of use” (Amgen Inc., priority 2006, dated 2011).

Structures are written as SMILES.

The IC50 is the concentration that gives 50% inhibition.

This experiment addresses PKBα (Homo sapiens, UniProt P31749). In words: PKB kinase assay (P33-labeled ATP, peptide substrate, filter plate). Type of experiment: biochemical. The conditions noted are these: PKBα enzyme (full length or kinase domain with pleckstrin domain deleted). The text has this:
The kinase assay for evaluating PKB activity comprises active PKB enzymes, a PKB specific substrate, and P^33-labeled ATP. […] The phosphorylated substrate was captured by a phosphocellulose membrane filter plate (MLLIPORE) and measured by a Wallac Microbeta liquid scintillation counter (Perkin Elmer).

Sequence of PKBα (P31749 118-480 limits assumed): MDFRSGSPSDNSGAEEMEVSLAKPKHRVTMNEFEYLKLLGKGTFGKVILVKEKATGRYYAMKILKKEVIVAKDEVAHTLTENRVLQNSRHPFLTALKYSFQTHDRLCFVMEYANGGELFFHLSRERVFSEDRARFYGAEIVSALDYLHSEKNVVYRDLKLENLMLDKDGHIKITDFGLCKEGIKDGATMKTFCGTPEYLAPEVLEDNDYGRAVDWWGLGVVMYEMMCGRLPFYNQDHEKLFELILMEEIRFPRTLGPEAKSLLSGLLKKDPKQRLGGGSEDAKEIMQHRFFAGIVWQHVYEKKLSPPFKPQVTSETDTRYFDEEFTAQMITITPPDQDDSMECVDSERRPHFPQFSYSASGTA

The compound `N[C@H](CNc1ncc(-c2ccc3c(c2)C2(CC2)C(=O)N3)s1)Cc1ccc(C(F)(F)F)cc1` [Example 199, 5′-(2-((S)-2-amino-3-(4-(trifluoromethyl)phenyl)propylamino)thiazol-5-yl)spiro[cyclopropane-1,3′-indol]-2′(1′H)-one] gave a concentration for half-maximal inhibition (IC50) of 50 to 1000 nM.
Next, `N[C@H](CNc1ncc(-c2ccc3cn[nH]c(=O)c3c2)s1)Cc1ccc(C(F)(F)F)cc1` [Example 252, 7-(2-((S)-2-amino-3-(4-(trifluoromethyl)phenyl)propylamino)thiazol-5-yl)phthalazin-1 (211)-one]: 1000 to 10000 nM; `N#Cc1nc(NC[C@@H](N)Cc2ccc(C(F)(F)F)cc2)sc1-c1ccc2c(c1)CC(=O)N2` [Example 61, 2-((S)-2-amino-3-(4-(trifluoromethyl)phenyl)propylamino)-5-(2-oxoindolin-5-yl)thiazole-4-carbonitrile]: 1000 to 10000 nM.
Take `Cn1c(=O)[nH]c2ccc(-c3cnc(NC[C@@H](N)Cc4ccc(Cl)c(F)c4)s3)cc21` [Example 87, 6-(2-((S)-2-Amino-3-(4-chloro-3-fluorophenyl)propylamino)thiazol-5-yl)-1-methyl-1H-benzo[d]imidazol-2(3H)-one]: the IC50 was < 50 nM.
Then `CCC[C@@H](c1ccc(C(F)(F)F)cc1)[C@H](N)CNc1ncc(-c2ccc3c(c2)CC(=O)N3)s1` [Example 156, 5-(2-((2S,3S)-2-amino-3-(4-(trifluoromethyl)phenyl)hexylamino)thiazol-5-yl)indolin-2-one], with 50 to 1000 nM; and `N[C@H](CNc1nc(CO)c(-c2ccc3cnccc3c2)s1)Cc1ccc(C(F)(F)F)cc1` [Example 10, (2-((S)-2-amino-3-(4-(trifluoromethyl)phenyl)propylamino)-5-(isoquinolin-6-yl)thiazol-4-yl)methanol], with < 50 nM.
`NC(CNc1ncc(-c2ccc3c(c2)CC(=O)N3)s1)Cc1ccc(C(F)(F)F)cc1F` (stereo not drawn) [Example 176, 5-(2-(-2-amino-3-(2-fluoro-4-(trifluoromethyl)phenyl)propylamino)thiazol-5-yl)indolin-2-one] yielded an IC50 of 50 to 1000 nM.
`Cn1nc(N)c2ccc(-c3cnc(NC[C@@H](N)Cc4ccc(C(F)(F)F)cc4)s3)cc21` [Example 53, 6-(2-((S)-2-amino-3-(4-(trifluoromethyl)phenyl)propylamino)thiazol-5-yl)-1-methyl-1H-indazol-3-amine] registered an IC50 of 1000 to 10000 nM.
In turn, `CCc1nc(NC[C@@H](N)Cc2ccc(C(F)(F)F)cc2)sc1-c1nc2ccncc2s1` [Example 23, N—((S)-2-amino-3-(4-(trifluoromethyl)phenyl)propyl)-4-ethyl-5-(thiazolo[5,4-c]pyridin-2-yl)thiazol-2-amine] displayed an IC50 of 50 to 1000 nM.
With `CS(=O)(=O)NCC#Cc1nc(NC[C@@H](N)Cc2ccc(C(F)(F)F)cc2)sc1-c1ccc2cnccc2c1` [Example 151, N-(3-(2-((S)-2-amino-3-(4-(trifluoromethyl)phenyl)propylamino)-5-(isoquinolin-6-yl)thiazol-4-yl)prop-2-ynyl)methanesulfonamide], the IC50 fell in the range of 1000 to 10000 nM.
Then `N[C@@H](Cc1ccc(C(F)(F)F)cc1)CN(Cc1ccccc1)c1ncc(-c2nc3ccncc3s2)s1` [Example 30, N—((S)-2-amino-3-(4-(trifluoromethyl)phenyl)propyl)-N-benzyl-5-(thiazolo[5,4-c]pyridin-2-yl)thiazol-2-amine], with 50 to 1000 nM; and `N[C@H](CNc1nc(C(F)(F)F)c(-c2ccc3cnccc3c2)s1)Cc1ccc(Cl)cc1` [Example 168], with 50 to 1000 nM.
Next, `N[C@H](CNc1ncc(-c2ccc3cnccc3c2)s1)Cc1ccc(C(F)(F)F)c(F)c1` [Example 83, N—((S)-2-Amino-3-(3-fluoro-4-(trifluoromethyl)phenyl)propyl)-5-(isoquinolin-6-yl)thiazol-2-amine]: < 50 nM; `Cn1c(=O)[nH]c2ccc(-c3sc(NC[C@@H](N)Cc4ccc(C(F)(F)F)cc4)nc3C(F)(F)CO)cc21` [Example 136, 6-(2-((S)-2-Amino-3-(4-(trifluoromethyl)phenyl)propylamino)-4-(1,1-difluoro-2-hydroxyethyl)thiazol-5-yl)-1-methyl-1H-benzo[d]imidazol-2(3H)-one]: 1000 to 10000 nM.
Then `N[C@H](CNc1ncc(-c2ccc3c(c2)CC(=O)N3)s1)Cc1ccc(C(F)(F)F)c(F)c1` [Example 185, 5-(2-((S)-2-amino-3-(3-fluoro-4-(trifluoromethyl)phenyl)propylamino)thiazol-5-yl)indolin-2-one], with < 50 nM.
As for `CC(O)[C@@H](c1ccc(C(F)(F)F)cc1)[C@H](N)CNc1ncc(-c2ccc3c(c2)CC(=O)N3)s1` (stereo partly drawn) [Example 243, 5-(2-((2S,3S)-2-amino-4-hydroxy-3-(4-(trifluoromethyl)phenyl)pentylamino)thiazol-5-yl)indolin-2-one], the IC50 is < 50 nM.
With `Cc1n[nH]c2ccc(-c3cnc(NC[C@@H](N)Cc4ccccc4)s3)cc12` [Example 1, N—((S)-2-amino-3-phenylpropyl)-5-(3-methyl-1H-indazol-5-yl)thiazol-2-amine], the IC50 was in the range of 50 to 1000 nM.
Then `c1ccc(CNc2ncc(-c3nc4ccncc4s3)s2)cc1` [Example 28, N-benzyl-5-(thiazolo[5,4-c]pyridin-2-yl)thiazol-2-amine], with 1000 to 10000 nM.
On to `C[C@@H](Nc1ncc(-c2ccc3cnccc3c2)s1)[C@@H](N)Cc1ccc(C(F)(F)F)cc1` [Example 230, N-((2R,3S)-3-amino-4-(4-(trifluoromethyl)phenyl)butan-2-yl)-5-(isoquinolin-6-yl)thiazol-2-amine], for which the IC50 is < 50 nM.
Then `COCc1nc(N(C[C@@H](N)Cc2cccc(Cl)c2)C(C)=O)sc1-c1nc2ccncc2s1` [Example 17, N—((S)-2-amino-3-(3-chlorophenyl)propyl)-N-(4-(methoxymethyl)-5-(thiazolo[5,4-c]pyridin-2-yl)thiazol-2-yl)acetamide], with 1000 to 10000 nM; and `N[C@H](CNc1ncc(-c2ccc3[nH]c(=O)oc3c2)s1)Cc1cc(F)cc(F)c1` [Example 164, 6-(2-((S)-2-amino-3-(3,5-difluorophenyl)propylamino)thiazol-5-yl)benzo[d]oxazol-2(3H)one], with 50 to 1000 nM.
Consider `N[C@H](CNc1ncc(-c2ccc3c(c2)CC(=O)N3)s1)[C@@H](CO)c1ccc(C(F)(F)F)cc1` [Example 158, 5-(2-((2S,3S)-2-amino-4-hydroxy-3-(4-(trifluoromethyl)phenyl)butylamino)thiazol-5-yl)indolin-2-one], for which the IC50 is < 50 nM.
Next, `N[C@H](CNc1nc(C(=O)NCCO)c(-c2ccc3cnccc3c2)s1)Cc1ccc(C(F)(F)F)cc1` [Example 119, 2-((S)-2-Amino-3-(4-(trifluoromethyl)phenyl)-propylamino)-N-(2-hydroxyethyl)-5-(isoquinolin-6-yl)thiazole-4-carboxamide]: 1000 to 10000 nM; `Cn1c(=O)[nH]c2ccc(-c3sc(NC[C@@H](N)Cc4ccc(C(F)(F)F)cc4)nc3-c3ccccc3F)cc21` [Example 249, 6-(2-((S)-2-amino-3-(4-(trifluoromethyl)phenyl)propylamino)-4-(2-fluorophenyl)thiazol-5-yl)-1-methyl-1H-benzo[d]imidazol-2(3H)-one]: 1000 to 10000 nM.
Then `COCc1nc(NC[C@H](Cc2ccc(C(F)(F)F)cc2)NCCN2CCOCC2)sc1-c1nc2ccncc2s1` [Example 34, 4-(Methoxymethyl)-N—((S)-2-(2-morpholinoethylamino)-3-(4-(trifluoromethyl)phenyl)propyl)-5-(thiazolo[5,4-c]pyridin-2-yl)thiazol-2-amine], with 50 to 1000 nM.
Then `N[C@H](CNc1ncc(-c2ccc3c(c2)CC(=O)N3)s1)Cc1ccc(Cl)s1` [Example 212, 5-(2-((S)-2-amino-3-(5-chlorothiophen-2-yl)propylamino)thiazol-5-yl)indolin-2-one], with 50 to 1000 nM.
Take `Nc1n[nH]c2cc(-c3cnc(NC[C@@H](N)Cc4ccc(C(F)(F)F)cc4)s3)ccc12` [Example 52, 6-(2-((S)-2-amino-3-(4-(trifluoromethyl)phenyl)propylamino)thiazol-5-yl)-1H-indazol-3-amine]: the half-inhibitory concentration (IC50) was in the range of 1000 to 10000 nM.
Next, `Cn1c(=O)[nH]c2ccc(-c3cnc(NC[C@@H](N)Cc4ccc(C(F)(F)F)c(F)c4)s3)cc21` [Example 184, 6-(2-((S)-2-amino-3-(3-fluoro-4-(trifluoromethyl)phenyl)propylamino)thiazol-5-yl)-1-methyl-1H-benzo[d]imidazol-2(3H)-one]: < 50 nM; `N#Cc1nc(NC[C@@H](N)Cc2ccc(C(F)(F)F)cc2)sc1-c1ccc2cnccc2c1` [Example 63, 2-((S)-2-amino-3-(4-(trifluoromethyl)phenyl)propylamino)-5-(isoquinolin-6-yl)thiazole-4-carbonitrile]: 1000 to 10000 nM; `N[C@H](CNc1ncc(-c2ccc3[nH]ncc3c2)s1)Cc1ccc(C(F)(F)F)c(F)c1` [Example 186, N—((S)-2-amino-3-(3-fluoro-4-(trifluoromethyl)phenyl)propyl)-5-(1H-indazol-5-yl)thiazol-2-amine]: < 50 nM.
Next, `N[C@H](CNc1ncc(-c2cc(F)c3c(c2)CC(=O)N3)s1)Cc1ccc(C(F)(F)F)cc1` [Example 220, 5-(2-((S)-2-amino-3-(4-(trifluoromethyl)phenyl)propylamino)thiazol-5-yl)-7-fluoroindolin-2-one]: < 50 nM; `N[C@H](CNc1ncc(-c2ccc3cnccc3c2)s1)Cc1ccc(Cl)s1` [Example 211, N—((S)-2-amino-3-(5-chlorothiophen-2-yl)propyl)-5-(isoquinolin-6-yl)thiazol-2-amine]: < 50 nM.
Next, `COCc1nc(NC[C@@H](N)Cc2ccc(C(F)(F)F)cc2)sc1-c1nc2ccncc2s1` [Example 22, N—((S)-2-amino-3-(4-(trifluoromethyl)phenyl)propyl)-4-(methoxymethyl)-5-(thiazolo[5,4-c]pyridin-2-yl)thiazol-2-amine]: < 50 nM.
